Experimental findings from patent publication US8034939B2, “Isoindole derivatives, compositions containing same, preparation thereof and pharmaceutical uses thereof in particular as inhibitors of chaperone protein Hsp90 activities” (Aventis Pharma S.A.., priority 2005, dated 2011) are described below.

The target of this test is Hsp82 (Saccharomyces cerevisiae, UniProt P02829). The experiment in a line: Hsp82 ATPase activity, PK/LDH coupled enzymatic assay (also malachite green method). To be noted: 1 μM Hsp82, 250 μM ATP, 37° C. It counts as biochemical. The protocol:
The […] released during the hydrolysis of ATP by the ATPase activity of Hsp82 is quantified by the malachite green method. In the presence of this reagent, formation of the inorganic phosphate-molybdate-malachite green complex occurs, which complex absorbs at a wavelength of 620 nm. The products to be evaluated are incubated in a reaction volume of 30 μl, in the presence of 1 μM Hsp82 and of […] of substrate (ATP) in a buffer composed of 50 mM Hepes-NaOH (pH 7.5), 1 mM DTT, 5 mM MgCl2 and 50 mM KCl at 37° C. for 60 minutes. In parallel, a range of inorganic phosphate between 1 and 40 μM is prepared in the same buffer. […] After incubation at ambient temperature for 20 minutes, the absorbance of the various wells is measured using a microplate reader at 620 nm. The concentration of […] of each sample is then calculated from the standard curve. The ATPase activity of Hsp82 is expressed as concentration of inorganic phosphate produced in 60 minutes. The effect of the various products tested is expressed as percentage inhibition of the ATPase activity. […]
The products tested are incubated in a reaction volume of 100 μl of buffer composed of 100 mM Hepes-NaOH (pH 7.5), 5 mM MgCl2, 1 mM DTT, 150 mM KCl, 0.3 mM NADH, 2.5 mM PEP and 250 μM ATP. […] The enzymatic activity of Hsp82 is then measured, continuously, in a microplate reader, at 37° C., at the wavelength of 340 nm. […]

Hsp82, sequence (P02829 whole entry): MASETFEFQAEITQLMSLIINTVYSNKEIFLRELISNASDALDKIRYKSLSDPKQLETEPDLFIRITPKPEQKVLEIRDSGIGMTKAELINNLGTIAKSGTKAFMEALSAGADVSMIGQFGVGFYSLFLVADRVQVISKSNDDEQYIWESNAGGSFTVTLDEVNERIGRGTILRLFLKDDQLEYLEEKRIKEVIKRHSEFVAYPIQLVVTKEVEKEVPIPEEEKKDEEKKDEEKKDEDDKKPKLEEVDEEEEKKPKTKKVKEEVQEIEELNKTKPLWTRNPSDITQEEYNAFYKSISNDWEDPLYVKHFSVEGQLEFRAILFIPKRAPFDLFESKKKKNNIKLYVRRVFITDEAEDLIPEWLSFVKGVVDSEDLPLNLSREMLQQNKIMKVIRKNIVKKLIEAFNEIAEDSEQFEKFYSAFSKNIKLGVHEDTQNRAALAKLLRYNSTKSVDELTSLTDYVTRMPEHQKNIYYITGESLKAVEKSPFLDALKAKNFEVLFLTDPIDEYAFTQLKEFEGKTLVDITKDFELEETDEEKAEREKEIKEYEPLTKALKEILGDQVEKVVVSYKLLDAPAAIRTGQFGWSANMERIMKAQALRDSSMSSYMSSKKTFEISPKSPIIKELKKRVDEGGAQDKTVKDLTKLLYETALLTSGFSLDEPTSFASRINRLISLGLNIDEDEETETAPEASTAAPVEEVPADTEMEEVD

`O=C1c2ccccc2C2=C(c3nc4ccncc4[nH]3)CCCN12` [Example 1, 1-{3-H-imidazo[4,5-c]pyridin-2-yl}-3,4-dihydro-2H-pyrido[2,1-a]-isoindole-6-one] showed an IC50 of 1 to 10 µM.
The result for `O=C1c2ccccc2C2=C(c3nc4ccc(O)cc4[nH]3)CCCN12` [Example 2, 1-{1-H-6-hydroxybenzimidazol-2-yl}-3,4-dihydro-2H-pyrido[2,1-a]isoindole-6-one] reads 10 to 100 µM.

One may read the IC50 as the concentration at which inhibition is half-maximal.
